Data: patent US20240301319A1, “PERFUMING COMPOSITIONS” (FIRMNICH SA, priority 2017, published 2024)
Counter-ions that a name gives are not always drawn. Like-named read-outs stand apart in the source and are kept apart here.

Columns and labels:
[1] = Volatility of perfuming compounds (Tables 4 to 10), with top/middle/bottom note type; assay type: physicochemical
Procedure, shortened: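 Volatility is expressed in μg/l in air. Top notes are 70,000 to 100 μg/l, middle notes 99 to 50 μg/l, and bottom notes 49 to 0.1 μg/l. Compounds are grouped by olfactive family: watery, green, fruity, citrus, sweet, gourmand and woody.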

[2] = Odor threshold and odor value of perfuming compounds (Tables 4 to 10)
[3] = Table 6, perfuming compounds having a fruity note
[4] = Table 6, perfuming compounds having a fruity note, note type by volatility
[5] = Table 8, perfuming compounds having a sweet note
[6] = Table 8, perfuming compounds having a sweet note, note type by volatility
[7] = Table 9, perfuming compounds having a gourmand note, note type by volatility
[8] = Table 7, citrus note, top, middle or bottom note
[9] = Table 7, citrus note, equals volatility divided by odor threshold
[10] = note type (Top/Middle/Bottom) by volatility, perfuming compounds having a green note
[11] = perfuming compounds having a green note

| SMILES | Volatility [1, 3] [μg/l air] | Type [1, 4] | Volatility [1, 5] [μg/l air] | Type [1, 6] | Volatility ([1]; Table 9, gourmand note) [μg/l air] | Type [1, 7] | Odor Threshold [2, 5] [μg/l air] | Odor Value [2, 5] | Odor Threshold ([2]; Table 9, gourmand note) [μg/l air] | other results |
| --- | --- | --- | --- | --- | --- | --- | --- | --- | --- | --- |
| C/C=C/c1ccc(OC)cc1 [1-methoxy-4-[(1E)-1-propen-1-yl]benzene] | 184.60 | TOP (perfuming compounds having a volatility ranging from 70,000 to 100 μg/l in air are referred to as “top notes”) | 184.60 | Top | 184.60 | Top | 1.23E−03 | 1.51E+05 | 1.23E−03 |  |
| CC1=CCC(C(C)C)=CC1 [1-methyl-4-(2-propanyl)-1,4-cyclohexadiene] |  |  |  |  |  |  |  |  |  | Volatility (μg/l air) ([1]; Table 7, citrus note): 4298.67 μg/l air; Type [1, 8]: Top; Odor Threshold (μg/l air) ([2]; Table 7, citrus note): 1.16E−01 μg/l air; Odor Value [2, 9]: 3.70E+04 |
| O=C1CCC2(CCCCC2)O1 [1-oxaspiro[4.5]decan-2-one] |  |  |  |  | 62.86 | Middle |  |  | 2.90E−04 |  |
| CC(=O)c1ccccc1 [1-phenylethanone] |  |  | 1728.98 | Top |  |  | 6.61E−03 | 2.62E+05 |  |  |
| Cc1cnc(C)c(C)n1 [2,3,5-TRIMETHYLPYRAZINE] |  |  | 7897.31 | Top |  |  | 2.82E−04 | 2.80E+07 |  |  |
| COc1cccc(OC)c1O [2,6-DIMETHOXYPHENOL] |  |  | 19.23 | Bottom | 19.23 | Bottom | 8.01E−06 | 2.40E+06 | 8.01E−06 |  |
| Cc1ncsc1CCO [2-(4-METHYL-1,3-THIAZOL-5-YL)-1-ETHANOL] |  |  | 2.36 | Bottom |  |  | 2.43E−04 | 9.71E+03 |  |  |
| CC(=O)OCCC1CCCCC1 [2-CYCLOHEXYL ETHYL ACETATE] | 489.45 | TOP (perfuming compounds having a volatility ranging from 70,000 to 100 μg/l in air are referred to as “top notes”) | 489.45 | Top |  |  | 4.49E−02 | 1.09E+04 |  |  |
| CC(=O)OCCC1CCCCC1 [2-CYCLOHEXYLETHYL ACETATE] |  |  |  |  | 489.45 | Top |  |  | 4.49E−02 |  |
| CCOc1ccc2ccccc2c1 [2-ETHOXYNAPHTHALENE] |  |  |  |  |  |  |  |  |  | Volatility (μg/l air) ([1]; Table 7, citrus note): 22.67 μg/l air; Type [1, 8]: Bottom; Odor Threshold (μg/l air) ([2]; Table 7, citrus note): 3.57E−03 μg/l air; Odor Value [2, 9]: 6.35E+03 |
| CCc1occc(=O)c1O [2-ETHYL-3-HYDROXY-4(4H)-PYRANONE] | 48.86 | Bottom | 48.86 | Bottom |  |  | 6.45E−05 | 7.57E+05 |  | Odor Threshold [2, 3]: 6.45E−05 μg/l air; Odor Value [2, 3]: 7.57E+05 |
| CC1=C(O)C(=O)CC1 [2-HYDROXY-3-METHYL-2-CYCLOPENTEN-1-ONE] |  |  | 396.50 | Top |  |  | 3.82E−04 | 1.04E+06 |  |  |
| CC(C)Cc1ccc2ccccc2n1 [2-ISOBUTYLQUINOLINE] |  |  | 8.73 | Bottom |  |  | 1.93E−04 | 4.53E+04 |  |  |
| COc1cc(C)ccc1O [2-METHOXY-4-METHYLPHENOL] |  |  | 306.61 | Top |  |  | 6.96E−04 | 4.41E+05 |  |  |
| CCCC1CCC(O)C(OC)C1 (stereo not drawn) [2-METHOXY-4-PROPYL-1-CYCLOHEXANOL] |  |  |  |  |  |  |  |  |  | Volatility (μg/l air) [1]: 189.74 μg/l air; Type [1, 10]: Top; Odor Threshold (μg/l air) [2, 11]: 2.85E−02 μg/l air |
| CCCC(=NO)C(C)C [2-METHYL-3-HEXANONE OXIME] |  |  |  |  |  |  |  |  |  | Type [1, 10]: Top; Volatility (μg/l air) [1, 11]: 687.75 μg/l air; Odor Threshold (μg/l air) [2, 11]: 4.81E−04 μg/l air |
| OCCc1ccccc1 [2-PHENYLETHANOL] | 159.75 | TOP (perfuming compounds having a volatility ranging from 70,000 to 100 μg/l in air are referred to as “top notes”) | 159.75 | Top | 159.75 | Top | 1.02E−04 | 1.56E+06 | 1.02E−04 |  |
| CC(=O)OCCc1ccccc1 [2-PHENYLETHYL ACETATE] | 201.26 | TOP (perfuming compounds having a volatility ranging from 70,000 to 100 μg/l in air are referred to as “top notes”) | 201.26 | Top | 201.26 | Top | 2.14E−03 | 9.38E+04 | 2.14E−03 |  |
| O=COCCc1ccccc1 [2-PHENYLETHYL FORMATE] | 567.67 | TOP (perfuming compounds having a volatility ranging from 70,000 to 100 μg/l in air are referred to as “top notes”) |  |  |  |  |  |  |  | Volatility (μg/l air) ([1]; Table 7, citrus note): 567.67 μg/l air; Type [1, 8]: Top; Type [1, 10]: Top; Volatility (μg/l air) [1, 11]: 567.67 μg/l air; Odor Threshold (μg/l air) ([2]; Table 7, citrus note): 8.34E−04 μg/l air; Odor Value [2, 9]: 6.81E+05; Odor Threshold (μg/l air) [2, 11]: 8.34E−04 μg/l air |
| CC(C)C(=O)OCCc1ccccc1 [2-PHENYLETHYL ISOBUTYRATE] | 67.38 | Middle | 67.38 | Middle | 67.38 | Middle | 6.70E−03 | 1.01E+04 | 6.70E−03 | Odor Threshold [2, 3]: 6.70E−03 μg/l air; Odor Value [2, 3]: 1.01E+04 |
| O=C(Cc1ccccc1)OCCc1ccccc1 [2-PHENYLETHYL PHENYLACETATE] | 0.20 | Bottom | 0.20 | Bottom | 0.20 | Bottom | 9.08E−04 | 2.24E+02 | 9.08E−04 | Volatility (μg/l air) ([1]; Table 7, citrus note): 0.20 μg/l air; Type [1, 8]: Bottom; Odor Threshold [2, 3]: 9.08E−04 μg/l air; Odor Value [2, 3]: 2.24E+02; Odor Threshold (μg/l air) ([2]; Table 7, citrus note): 9.08E−04 μg/l air; Odor Value [2, 9]: 2.24E+02 |
| CC(C)(C)C(=O)OCCc1ccccc1 [2-PHENYLETHYL PIVALATE] | 71.44 | Middle | 71.44 | Middle | 71.44 | Middle | 3.85E−02 | 1.86E+03 | 3.85E−02 | Odor Threshold [2, 3]: 3.85E−02 μg/l air; Odor Value [2, 3]: 1.86E+03 |
| COc1ccc(OC)c(C(C)(C)C)c1 [2-TERT-BUTYL-1,4-DIMETHOXYBENZENE] |  |  |  |  |  |  |  |  |  | Type ([1]; Table 10, perfuming compounds having a woody note, note type by volatility): Middle; Volatility ([1]; Table 10, woody note): 82.95 μg/l air; Odor Threshold ([2]; Table 10, woody note): 1.65E−02 μg/l air |
| C/C=C/c1ccc(O)c(OC)c1 [2-methoxy-4-[(1E)-1-propen-1-yl]phenol] |  |  | 11.28 | Bottom | 11.28 | Bottom | 6.63E−06 | 1.70E+06 | 6.63E−06 |  |
| CC(C)C(=O)OCCOc1ccccc1 [2-phenoxyethyl 2-methylpropanoate] | 10.05 | Bottom |  |  |  |  |  |  |  | Type [1, 10]: Bottom; Volatility (μg/l air) [1, 11]: 10.05 μg/l air; Odor Threshold [2, 3]: 3.01E−02 μg/l air; Odor Value [2, 3]: 3.34E+02; Odor Threshold (μg/l air) [2, 11]: 3.01E−02 μg/l air |
| CC(=O)OCCC(C)CCC=C(C)C (stereo not drawn) [3,7-DIMETHYL-6-OCTENYL ACETATE] | 128.72 | TOP (perfuming compounds having a volatility ranging from 70,000 to 100 μg/l in air are referred to as “top notes”) |  |  |  |  |  |  |  | Odor Threshold [2, 3]: 2.75E−02 μg/l air; Odor Value [2, 3]: 4.68E+03 |
| Cc1occc(=O)c1O [3-HYDROXY-2-METHYL-4(4H)-PYRANONE] | 92.42 | Middle | 92.42 | Middle |  |  | 4.17E−04 | 2.22E+05 |  | Odor Threshold [2, 3]: 4.17E−04 μg/l air; Odor Value [2, 3]: 2.22E+05 |
| CC(C)CCOCCc1ccccc1 [3-METHYLBUTYL 2-PHENYLETHYL ETHER] | 110.11 | TOP (perfuming compounds having a volatility ranging from 70,000 to 100 μg/l in air are referred to as “top notes”) | 110.11 | Top | 110.11 | Top | 1.38E−02 | 7.96E+03 | 1.38E−02 | Odor Threshold [2, 3]: 1.38E−02 μg/l air; Odor Value [2, 3]: 7.96E+03 |
| CC(=O)OCC=C(C)C [3-methyl-2-buten-1-yl acetate] | 27705.98 | TOP (perfuming compounds having a volatility ranging from 70,000 to 100 μg/l in air are referred to as “top notes”) |  |  |  |  |  |  |  | Type [1, 10]: Top; Volatility (μg/l air) [1, 11]: 27705.98 μg/l air; Odor Threshold (μg/l air) [2, 11]: 5.58E−02 μg/l air |
